# Experimental data as given in PubChem BioAssay (NCI).
# Several values for one entry are separate records, joined by “and”; a condition that tells them apart may be missing. Equal values may be shown once.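 How tested: cells in 96-well plates exposed to compound for 48 hours at five concentrations. GI50 = concentration required for 50% inhibition of growth. TGI marks complete inhibition of growth.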
# System: 786-0 renal
# Test: DTP human tumour cell line panel, 48 h
Structure (SMILES),GI50,TGI
NC(=O)c1ccc(I)c(N=O)c1,61.8 µM,> 100 µM
COc1ccc2c(=O)cc(-c3ccncc3)oc2c1OC,,> 100 µM
O=C(O)c1cc2ccc3ccccc3c2oc1=O,,> 100 µM
O=[N+]([O-])c1ccc2c(c1)Cc1cc(N=Cc3ccc4c(c3)OCO4)ccc1-2,,> 100 µM
COC(=O)[C@@]12OC[C@]34[C@H]([C@@H](O)[C@@H]1O)[C@@]1(C)[C@H](O)C(=O)C=C(C)[C@@H]1C[C@H]3OC(=O)C(OC(C)=O)[C@@H]24 (some centres undefined),0.026 µM,0.0889 µM

# System: SNB-19 CNS
# Test: DTP human tumour cell line panel, 48 h
Structure (SMILES),GI50,TGI
N.N.N.N.N.[Cl-].[Co+3].c1ccc(-c2nn[n-]n2)cc1,> 100 µM,> 100 µM
COc1cccc2c1C(=O)c1c(O)c3c(c(O)c1C2=O)CC(O)(C(O)CO)CC3OC1CC(N2CCOCC2)C(O)C(C)O1 (centres undefined),0.0305 µM,0.139 µM and 0.801 µM
C1COCCN1.C1COCCN1.NC1CCCCC1N.[Cl-].[Pt+2] (centres undefined),> 100 µM,> 100 µM
COC1OC(CBr)C(OC(=O)c2ccccc2)C(O)C1Br (centres undefined),,> 100 µM
O=C(NC(=O)c1cn(CCN(CCO)C(=O)NCCCCCCNC(=O)N(CCO)CCn2cc(C(=O)NC(=O)OCc3ccccc3)c(=O)[nH]c2=O)c(=O)[nH]c1=O)OCc1ccccc1,,> 100 µM
CCOC1=C2C(=O)OC(=O)C2C2CCCCC2=C1 (centres undefined),,> 100 µM
Cc1cc2c(C)nn(Cc3ccccc3)c2c(C(N)=O)c1C,,> 100 µM
C=CCNC(=O)N(CCCC(NC(C)=O)C(=O)NCc1ccccc1)Cc1ccccc1 (centres undefined),,> 100 µM
c1ccc(C(c2ccccc2)c2cccnc2)cc1,,> 100 µM
C1=CC=C2NCCCCCCCNC3=CC=CC=CC3=NCCCCCCCN=C2C=C1,,> 100 µM
COC(=O)/C(=N\NC(=O)C[N+](C)(C)C)C(C(=O)OC)C(=O)C(=O)Nc1ccccc1C(N)=O (centres undefined),,> 100 µM
CC1CN(c2ccc(Cl)cc2)CC(C)OC(=O)O1 (centres undefined),,> 100 µM
COCC(O)Cn1ccnc1[N+](=O)[O-] (centres undefined),,> 100 µM
O=c1ccn(C2CC(O)C(CO)O2)c(=O)[nH]1 (centres undefined),> 5000 µM,> 5000 µM
OCC1C(/C=C/c2ccoc2)ON2CCCC12 (centres undefined),,> 100 µM
O=C(N/C(=C/c1ccc(Cl)cc1Cl)c1nc2ccccc2s1)c1ccccc1,,41.1 µM
COc1c(O)cc2oc(-c3ccc(O)cc3)cc(=O)c2c1O,,> 100 µM
COc1cccc(-c2nn(-c3ccccc3)cc2-c2ccnc(NCCCNC(=O)Nc3ccc(Cl)c(Cl)c3)c2)c1,4.01 µM,25.6 µM

Structure (SMILES),GI50,TGI
COc1cc2ccccc2oc1=O,,> 100 µM
Nc1nc(N)c2nc(CNc3ccc(C(=O)NC(CC(=O)O)C(=O)O)cc3)cnc2n1 (centres undefined),8.39 µM,> 100 µM
O=C1c2cccc(NCCN=Cc3cc([N+](=O)[O-])ccc3O)c2C(=O)c2c(NCCN=Cc3cc([N+](=O)[O-])ccc3O)cccc21,6.95 µM,> 100 µM
CC(=O)OC[C@]12CC[C@@H](C(=O)CBr)[C@@H]1[C@H]1CC[C@@H]3[C@@]4(C)CCCNC(C)(C)[C@@H]4CC[C@@]3(C)[C@]1(C)CC2,11.5 µM,25.2 µM
COc1cc2c3c(n(CCCCN)c(=O)c2cc1OC)-c1cc2c(cc1C3=O)OCO2,0.464 µM,6.75 µM
Cc1cc(NCCCCCCNc2cc(C)nc3cc(N(C)C)ccc23)c2ccc(N(C)C)cc2n1,,92.7 µM
N#CCCN(CCCN(CCCN(C(=O)Nc1ccccc1)c1ccccc1)C(=O)Nc1ccccc1)C(=O)Nc1ccccc1,,> 8.75 µM
C=CCC1(O)c2ccccc2C(=O)c2c(NCCN(CC(=O)OCC)CC(=O)OCC)cccc21 (centres undefined),> 100 µM,> 100 µM
Cc1ccc([N+](=O)[O-])cc1NC(=O)/C(=N/NC(=S)NN)C1SC(=S)NC1=O (centres undefined),,> 100 µM
COc1cccc(-n2nc(C)c3c(N/N=C(\C)c4ccncc4)ncnc32)c1,> 25 µM,> 25 µM
Cc1ccc(-c2nc(C#N)c(S(=O)(=O)n3nc(C)cc3N)o2)cc1,14.1 µM,28.4 µM
COc1cccc2c1ccc1nc3cccc(C(=O)N[C@H](C)CN(C)C)c3nc12,0.0907 µM,10.9 µM
NC(=O)c1ccc(I)c(N=O)c1,> 100 µM,> 100 µM
COc1ccc2c(=O)cc(-c3ccncc3)oc2c1OC,,> 100 µM
O=C(O)c1cc2ccc3ccccc3c2oc1=O,,> 100 µM
O=[N+]([O-])c1ccc2c(c1)Cc1cc(N=Cc3ccc4c(c3)OCO4)ccc1-2,,> 100 µM
COC(=O)[C@@]12OC[C@]34[C@H]([C@@H](O)[C@@H]1O)[C@@]1(C)[C@H](O)C(=O)C=C(C)[C@@H]1C[C@H]3OC(=O)C(OC(C)=O)[C@@H]24 (some centres undefined),0.0232 µM,0.299 µM

# System: UACC-257 melanoma
# Test: DTP human tumour cell line panel, 48 h
Structure (SMILES),GI50,TGI
N.N.N.N.N.[Cl-].[Co+3].c1ccc(-c2nn[n-]n2)cc1,> 100 µM,> 100 µM
COc1cccc2c1C(=O)c1c(O)c3c(c(O)c1C2=O)CC(O)(C(O)CO)CC3OC1CC(N2CCOCC2)C(O)C(C)O1 (centres undefined),0.0199 µM,0.013 µM and 0.0424 µM
C1COCCN1.C1COCCN1.NC1CCCCC1N.[Cl-].[Pt+2] (centres undefined),> 100 µM,> 100 µM
COC1OC(CBr)C(OC(=O)c2ccccc2)C(O)C1Br (centres undefined),,> 10 µM
C[C@]12CCC(=O)C=C1CC[C@@H]1C2CC[C@]2(C)Nc3c(cnn3-c3ccccc3)CC12 (some centres undefined),,> 100 µM
O=C(NC(=O)c1cn(CCN(CCO)C(=O)NCCCCCCNC(=O)N(CCO)CCn2cc(C(=O)NC(=O)OCc3ccccc3)c(=O)[nH]c2=O)c(=O)[nH]c1=O)OCc1ccccc1,,> 100 µM
CCOC1=C2C(=O)OC(=O)C2C2CCCCC2=C1 (centres undefined),,> 100 µM
Cc1cc2c(C)nn(Cc3ccccc3)c2c(C(N)=O)c1C,,> 100 µM
C=CCNC(=O)N(CCCC(NC(C)=O)C(=O)NCc1ccccc1)Cc1ccccc1 (centres undefined),,> 100 µM
c1ccc(C(c2ccccc2)c2cccnc2)cc1,,> 100 µM
C1=CC=C2NCCCCCCCNC3=CC=CC=CC3=NCCCCCCCN=C2C=C1,,> 100 µM
COC(=O)/C(=N\NC(=O)C[N+](C)(C)C)C(C(=O)OC)C(=O)C(=O)Nc1ccccc1C(N)=O (centres undefined),,> 100 µM
CC1CN(c2ccc(Cl)cc2)CC(C)OC(=O)O1 (centres undefined),,> 100 µM
COCC(O)Cn1ccnc1[N+](=O)[O-] (centres undefined),,> 100 µM
O=c1ccn(C2CC(O)C(CO)O2)c(=O)[nH]1 (centres undefined),> 5000 µM,> 5000 µM
OCC1C(/C=C/c2ccoc2)ON2CCCC12 (centres undefined),,> 100 µM
O=C(N/C(=C/c1ccc(Cl)cc1Cl)c1nc2ccccc2s1)c1ccccc1,,31.6 µM
COc1c(O)cc2oc(-c3ccc(O)cc3)cc(=O)c2c1O,,> 100 µM

Structure (SMILES),GI50,TGI
COc1cccc(-c2nn(-c3ccccc3)cc2-c2ccnc(NCCCNC(=O)Nc3ccc(Cl)c(Cl)c3)c2)c1,2.05 µM,5.38 µM
COc1cc2ccccc2oc1=O,,> 100 µM
Nc1nc(N)c2nc(CNc3ccc(C(=O)NC(CC(=O)O)C(=O)O)cc3)cnc2n1 (centres undefined),> 33.8 µM,> 100 µM
O=C1c2cccc(NCCN=Cc3cc([N+](=O)[O-])ccc3O)c2C(=O)c2c(NCCN=Cc3cc([N+](=O)[O-])ccc3O)cccc21,> 100 µM,> 100 µM
CC(=O)OC[C@]12CC[C@@H](C(=O)CBr)[C@@H]1[C@H]1CC[C@@H]3[C@@]4(C)CCCNC(C)(C)[C@@H]4CC[C@@]3(C)[C@]1(C)CC2,9.2 µM,23.1 µM
COc1cc2c3c(n(CCCCN)c(=O)c2cc1OC)-c1cc2c(cc1C3=O)OCO2,3.35 µM,25 µM
Cc1cc(NCCCCCCNc2cc(C)nc3cc(N(C)C)ccc23)c2ccc(N(C)C)cc2n1,,> 100 µM
N#CCCN(CCCN(CCCN(C(=O)Nc1ccccc1)c1ccccc1)C(=O)Nc1ccccc1)C(=O)Nc1ccccc1,> 100 µM,> 100 µM
C=CCC1(O)c2ccccc2C(=O)c2c(NCCN(CC(=O)OCC)CC(=O)OCC)cccc21 (centres undefined),> 100 µM,> 100 µM
Cc1ccc([N+](=O)[O-])cc1NC(=O)/C(=N/NC(=S)NN)C1SC(=S)NC1=O (centres undefined),,> 100 µM
COc1cccc(-n2nc(C)c3c(N/N=C(\C)c4ccncc4)ncnc32)c1,> 25 µM,> 25 µM
Cc1ccc(-c2nc(C#N)c(S(=O)(=O)n3nc(C)cc3N)o2)cc1,16.5 µM,30.1 µM
COc1cccc2c1ccc1nc3cccc(C(=O)N[C@H](C)CN(C)C)c3nc12,0.16 µM,0.659 µM
NC(=O)c1ccc(I)c(N=O)c1,35.3 µM,> 100 µM
COc1ccc2c(=O)cc(-c3ccncc3)oc2c1OC,,> 100 µM
O=C(O)c1cc2ccc3ccccc3c2oc1=O,,> 100 µM
O=[N+]([O-])c1ccc2c(c1)Cc1cc(N=Cc3ccc4c(c3)OCO4)ccc1-2,,> 100 µM
COC(=O)[C@@]12OC[C@]34[C@H]([C@@H](O)[C@@H]1O)[C@@]1(C)[C@H](O)C(=O)C=C(C)[C@@H]1C[C@H]3OC(=O)C(OC(C)=O)[C@@H]24 (some centres undefined),0.0668 µM,0.428 µM
